The record followed here is patent publication US6335357B1, “Pyrazole derivatives, process for preparing the same, intermediates, and pest control agent containing the same as active ingredient” (Mitsubishi Chemical Corporation, priority 1997, dated 2002).

Common to all, as to format: in vivo
One data set concerns Nilaparvata lugens. Briefly: Insecticidal effect on larvae of Nilaparvata lugens (Test Example 1). The following applies: 500 ppm; 4th instar larvae on rice seedling, sprayed emulsion; after 5 days at 25° C. How it is done:
Insecticidal Effect on Larvae of Nilaparvata lugens:
A rice seedling was planted in a glass cylinder (inner diameter: 3 cm; length: 17 cm), and five 4th instar larvae of Nilaparvata lugens were set free therein. An agricultural and horticultural insecticide was prepared in accordance with Formulation Example 3 and diluted with water, and 0.5 ml of the resulting emulsion was sprayed in the cylinder by means of a spray tower (manufactured by Mizuho Rika) (duplicates at a concentration). The cylinder was kept in a thermostat at 25° C., and the mortality and agony of the larvae were examined after 5 days from the treatment to obtain a death rate (%) taking an agonizing insect as a ½ dead insect.

Data set [1] deals with Plutella xylostella. Description: Insecticidal effect on larvae of Plutella xylostella (Test Example 2). The following applies: 500 ppm; 3-instar larvae, cabbage leaf disc soaked in suspension; after 4 days at 25° C. How it is done:
Insecticideal Effect on Larvae of Plutella xylostella:
A disc (6 cm in diameter) cut out of a cabbage leaf was soaked in an aqueous suspension of the agricultural and horticultural insecticide prepared in accordance with Formulation Example 1 for 1 minute, air-dried, and placed in a plastic cup (inner diameter: 7 cm). Five 3-instar larvae of Plutella xylostella were set free in the cup (duplicates at a concentration). The cup was kept in a thermostat at 25° C., and the death and agony of the larvae were examined after 4 days from the treatment to obtain a death rate (%) taking an agonizing insect as a ½ dead insect. The results obtained are shown in Table 3 (the compound numbers in the Table below correspond to the numbers in Table 1).

Data set [2] concerns Spodoptera litura. Briefly: Insecticidal effect on larvae of Spodoptera litura (Test Example 3). As to conditions: 500 ppm; 3-instar larvae, cabbage leaf disc soaked in suspension; after 5 days at 25° C. How it is done: Insecticidal Effect on Larvae of Spodoptera litura:
A disc (6 cm in diameter) cut out of a cabbage leaf was soaked in an aqueous suspension of an agricultural and horticultural insecticide prepared in accordance with Formulation Example 1 for 1 minute, air-dried, and placed in a plastic cup (inner diameter: 7 cm). Five 3-instar larvae of Spodoptera litura were set free in the cup (duplicates at a concentation). The cup was kept in a thermostat at 25° C., and the death and agony of the larvae were examined after 5 days from the treatment to obtain a death rate (%) taking an agonizing insect as a ½ dead insect. The results obtained are show in Table 4 (the compound numbers in the Table below correspond to the numbers in Table 1).

The test system of the next data set is Callosobruchus chinensis. Briefly: Insecticidal effect on imagoes of Callosobruchus chinensis (Test Example 4). As to conditions: 500 ppm, sprayed emulsion, after 4 days at 25° C. On the procedure:
Insecticidal Effect on Imagoes of Callosobruchus chinensis:
Two adzuki beans were put in a glass cylinder (inner diameter: 3 cm; length: 15 cm), and 10 imagoes of Callosobruchus chinensis were set free therein. An agricultural and horticultural insecticide was prepared in accordance with Formulation Example 3 and diluted with water, and 0.3 ml of the resulting emulsion was sprayed in the glass cylinder by means of a spray tower (manufactured by Mizuho Rica) (duplicates at a concentration). The cylinder was kept in a thermostat at 25° C., and the mortality and agony of the larvea were examined after 4 days from the treatment to obtain a death rate (%) taking an agonizing insect as a ½ dead insect.

In data set [3] the test system is Myzus persicae. Briefly: Insecticidal effect on larvae of Myzus persicae (Test Example 5). As to conditions: 500 ppm; Japanese radish leaves dipped in emulsion; 4th day after treatment at 25° C. How it is done:
Insecticidal Effect on Larvae of Myzus persicae:
Water was put in a screw bottle (volume: 10 ml), and a leafstalk of Japanese radish was placed therein and inoculated with 5 to 6 imagoes of Myzus persicae per leave. After the inoculation, the bottle was put in a glass cylinder (diameter: 3.5 cm; height: 15 cm) with a mesh cover, and the insects were let to proliferate in a thermostat kept at 25° C. for 3 days. […] The cylinder was maintained in the thermostat at 25° C., and the number of the insects on the leaves was counted on the 4th day after the treatment to obtain a death rate (%).

For data set [4], the system named is Spodoptera litura. Description: Low concentration test, Spodoptera litura (Test Example 6).
The subject of data set [5] is Plutella xylostella. Description: Low concentration test, Plutella xylostella (Test Example 6). The source says: Effects on the larvae of Plutella xylostella of compound Nos. 2 and 57 of the invention and, for comparison, the compound I described in an unexamined published Japanese patent application 63-316771 and the compounds II and III described in an unexamined published Japanese patent application 5-148240 were examined at varied concentrations. The results obtained are shown in Table 7 (the compound numbers in the Table correspond to the numbers in Table 1).

The test system of data set [6] is Myzus persicae. Briefly: Low concentration test, Myzus persicae (Test Example 6).
The next data set has as its system CD-1 male mice. Description: Single oral dose administration test in mice (acute toxicity, Test Example 7). The following applies: 300 mg/kg single oral dose in 0.5% CMC-Na, after 7 days. On the procedure: Single Oral Dose Administration Test in Mice:
Acute toxicity (p.o.) compound No. 1 in mice was examined as follows. For comparison, compound IV disclosed in an unexamined published Japanese patent application 63-316771 was tested similarly.
Each test compound (300 mg) was suspended in 10 ml of a 0.5% CMC-Na aqueous solution. Five 6-week-old CD-1 male mice (available from Charles River) per group were forced to take an oral dose of 10 ml/kg of the suspension. The number of dead mice was counted after 7 days from the administration to obtain a death rate.

Consider `Cn1cccc1CNc1c(SC(F)(F)F)c(C#N)nn1-c1c(Cl)cc(C(F)(F)F)cc1Cl` [Compound 57], for which the “Death Rate (%)” value in the data set on Nilaparvata lugens, in the data set on Plutella xylostella [1], with Spodoptera litura [2], with Callosobruchus chinensis and in the data set on Myzus persicae [3] was 100% throughout. In addition, the entries for the “Death Rate (%) Spodoptera litura” value in the data set on Spodoptera litura [4] (12.5 ppm), in the data set with Spodoptera litura [4] (50 ppm) and in the data set with Spodoptera litura [4] (200 ppm) were 70%, 100% and 100%, respectively. Further, the “Death Rate (%) Plutella xylostella” value in the data set on Plutella xylostella [5] (0.2 ppm) is listed as 40%; in the data set on Plutella xylostella [5] (0.8 ppm), 100%; with Plutella xylostella [5] (3.1 ppm), 100%; in the data set with Plutella xylostella [5] (12.5 ppm), 100%; in the data set on Plutella xylostella [5] (50 ppm), 100%; in the data set with Plutella xylostella [5] (200 ppm), 100%. Moreover, the “Death Rate (%) Myzus persicae” value with Myzus persicae [6] (12.5 ppm) stood at 80%; in the data set on Myzus persicae [6] (50 ppm) it was 90%; with Myzus persicae [6] (200 ppm) it was 100%.

For the compound `N#Cc1nn(-c2c(Cl)cc(C(F)(F)F)cc2Cl)c(N=Cc2ccncc2)c1SC(F)(F)F` [II], the “Death Rate (%) Spodoptera litura” value in the data set with Spodoptera litura [4] (3.1 ppm) is 60%; with Spodoptera litura [4] (12.5 ppm) it was 95%; in the data set with Spodoptera litura [4] (50 ppm) it was 200%; in the data set with Spodoptera litura [4] (200 ppm), 100%. Further, the “Death Rate (%) Plutella xylostella” value is 80% in the data set on Plutella xylostella [5] (0.05 ppm); 100% in the data set with Plutella xylostella [5] (0.2 ppm); 100% in the data set on Plutella xylostella [5] (0.8 ppm); 100% in the data set with Plutella xylostella [5] (3.1 ppm); 100% in the data set with Plutella xylostella [5] (12.5 ppm); 100% with Plutella xylostella [5] (50 ppm). Moreover, the “Death Rate (%) Plutella xylostella” value with Plutella xylostella [5] (200 ppm) came out at 100%. For the same compound, the “Death Rate (%) Myzus persicae” value in the data set on Myzus persicae [6] (200 ppm) is reported as 0%.

For `COc1cc(CNc2c(SC(F)(F)F)c(C#N)nn2-c2c(Cl)cc(C(F)(F)F)cc2Cl)ccc1O` [Compound 2, 1-(2,6-Dichloro-4-trifluoromethylphenyl)-3-cyano-4-trifluoromethylsulfenyl-5-[(3-methoxy-4-hydroxyphenyl)methylamino]pyrazole], the “Death Rate (%)” value in the data set with Nilaparvata lugens is given as 100%; with Plutella xylostella [1], 100%; with Spodoptera litura [2] it was 100%; in the data set with Callosobruchus chinensis, 100%; in the data set on Myzus persicae [3] it was 100%; in the data set on CD-1 male mice, 0%.

Take `N#Cc1nn(-c2c(Cl)cc(C(F)(F)F)cc2Cl)c(N)c1[S+]([O-])C(F)(F)F` (stereo not shown) [IV, reference compound]: in the data set with CD-1 male mice, the “Death Rate (%)” value is 80%.

Regarding `N#Cc1nn(-c2c(Cl)cc(C(F)(F)F)cc2Cl)c(NCc2ccccc2Cl)c1SC(F)(F)F` [Compound 18], the “Death Rate (%)” value in the data set on Nilaparvata lugens, in the data set with Plutella xylostella [1], in the data set with Spodoptera litura [2] and in the data set on Callosobruchus chinensis was 100% in each case.

On to `CC(C)Oc1ccc(CNc2c(SC(F)(F)F)c(C#N)nn2-c2c(Cl)cc(C(F)(F)F)cc2Cl)cc1` [Compound 8], for which the “Death Rate (%)” value with Nilaparvata lugens, in the data set on Plutella xylostella [1] and in the data set with Callosobruchus chinensis was 100% throughout.

For `CC(C)(C)c1ccc(CNc2c(SC(F)(F)F)c(C#N)nn2-c2c(Cl)cc(C(F)(F)F)cc2Cl)cc1` [Compound 5], the “Death Rate (%)” value in the data set with Nilaparvata lugens and with Callosobruchus chinensis was 100% each time.

With `COc1ccc(CNc2c(SC(F)(F)F)c(C#N)nn2-c2c(Cl)cc(C(F)(F)F)cc2Cl)cc1` [Compound 7], the “Death Rate (%)” value in the data set with Nilaparvata lugens, in the data set on Plutella xylostella [1], with Spodoptera litura [2] and in the data set on Callosobruchus chinensis was 100% throughout.

As for `N#Cc1nn(-c2c(Cl)cc(C(F)(F)F)cc2Cl)c(NCc2ccncc2)c1SC(F)(F)F` [Compound 1, 1-(2,6-Dichloro-4-trifluoromethylphenyl)-3-cyano-4-trifluoromethylsulfenyl-5-(4-pyridylmethylamino)pyrazole], the “Death Rate (%)” value in the data set on Nilaparvata lugens, in the data set on Plutella xylostella [1], with Spodoptera litura [2], with Callosobruchus chinensis and with Myzus persicae [3] was 100% in each case. Further, the “Death Rate (%) Spodoptera litura” value in the data set on Spodoptera litura [4] (3.1 ppm) turned out to be 95%; in the data set on Spodoptera litura [4] (12.5 ppm), 100%; in the data set with Spodoptera litura [4] (50 ppm), 100%; in the data set on Spodoptera litura [4] (200 ppm) it was 100%. The “Death Rate (%) Plutella xylostella” value in the data set on Plutella xylostella [5] (0.05 ppm) amounted to 95%; in the data set on Plutella xylostella [5] (0.2 ppm), 100%; in the data set on Plutella xylostella [5] (0.8 ppm), 100%; in the data set on Plutella xylostella [5] (3.1 ppm) it was 100%; with Plutella xylostella [5] (12.5 ppm), 100%; in the data set with Plutella xylostella [5] (50 ppm), 100%. Also, in the data set on Plutella xylostella [5] (200 ppm), the “Death Rate (%) Plutella xylostella” value is listed as 100%. Moreover, the “Death Rate (%) Myzus persicae” value in the data set on Myzus persicae [6] (12.5 ppm) is reported as 98%; in the data set on Myzus persicae [6] (50 ppm), 100%; with Myzus persicae [6] (200 ppm) it was 100%.

Consider `COc1cc(CNc2c([S+]([O-])C(F)(F)F)c(C#N)nn2-c2c(Cl)cc(C(F)(F)F)cc2Cl)ccc1O` (stereo not shown) [Compound 64], for which the “Death Rate (%)” value in the data set on Nilaparvata lugens, in the data set on Plutella xylostella [1] and with Callosobruchus chinensis was 100% throughout.

`Cn1cccc1C=Nc1c(SC(F)(F)F)c(C#N)nn1-c1c(Cl)cc(C(F)(F)F)cc1Cl` [III]: the “Death Rate (%) Spodoptera litura” value in the data set with Spodoptera litura [4] (12.5 ppm) amounted to 65%; in the data set with Spodoptera litura [4] (50 ppm), 95%; in the data set with Spodoptera litura [4] (200 ppm) it was 100%. Besides, the “Death Rate (%) Plutella xylostella” value with Plutella xylostella [5] (0.8 ppm) is reported as 20%; with Plutella xylostella [5] (3.1 ppm), 75%; with Plutella xylostella [5] (12.5 ppm), 100%; in the data set on Plutella xylostella [5] (50 ppm) it was 100%; with Plutella xylostella [5] (200 ppm), 100%. Moreover, in the data set with Myzus persicae [6] (200 ppm), the “Death Rate (%) Myzus persicae” value was determined as 0%.

With `CCCNc1c(SC(F)(F)F)c(C#N)nn1-c1c(Cl)cc(C(F)(F)F)cc1Cl` [I], the “Death Rate (%) Spodoptera litura” value is given as 0% in the data set with Spodoptera litura [4] (3.1 ppm), 50% with Spodoptera litura [4] (12.5 ppm), 100% with Spodoptera litura [4] (50 ppm) and 100% in the data set on Spodoptera litura [4] (200 ppm). The “Death Rate (%) Plutella xylostella” value with Plutella xylostella [5] (0.2 ppm) is listed as 20%; in the data set on Plutella xylostella [5] (0.8 ppm), 85%; with Plutella xylostella [5] (3.1 ppm) it was 100%; in the data set with Plutella xylostella [5] (12.5 ppm) it was 100%; in the data set on Plutella xylostella [5] (50 ppm), 100%; in the data set on Plutella xylostella [5] (200 ppm), 100%. The “Death Rate (%) Myzus persicae” value with Myzus persicae [6] (3.1 ppm) is given as 0%; in the data set with Myzus persicae [6] (12.5 ppm), 50%; in the data set with Myzus persicae [6] (50 ppm), 60%; in the data set with Myzus persicae [6] (200 ppm), 50%.
